From patent publication US20240067733A1, “COMPOSITIONS AND METHODS FOR TARGETING AND KILLING ALPHA-V BETA-3-POSITIVE CANCER STEM CELLS (CSCS) AND TREATING DRUG RESISTANT CANCERS” (THE REGENTS OF THE UNIVERSITY OF CALIFORNIA, priority 2017, published 2024)

How the values were obtained:
HCC827-ErlR = tested on: HCC827-ErlR
Experimental: (§1) Cells were plated in 96-well plates, and after appropriate treatments, the cells were incubated in MTT solution (Sigma, M2128, 0.5 mg/mL in growth media) for two hours at 37° C. Then, the MTT solution was removed, and the blue crystalline precipitate in each well was dissolved in DMSO. Visible absorbance of each well at 560 nm was quantified using a microplate reader.

PC9 ErlR cells = settings: cells from erlotinib treated (ErlR) vs vehicle treated animal
Experimental: as §1

[1] = tested on: HCC827 (β3−, GFP+, luciferase+) cells; experiment: Orthotopic lung adenocarcinoma model and CTC isolation; format: in vivo, nu/nu mice
Experimental: The pre-treatment group mice were sacrificed in week 8 for CTC analysis. […] Whole blood (0.5 mL/mouse) was collected in EDTA tubes, and PBMCs including CTCs were isolated using Lymphoprep™ ([…] Technologies, 85415) and SepMate™ ([…] Technologies, 07801) following the manufacturer's protocol. Isolated cells were washed with PBS, plated on poly-L-Lysine (Sigma, P1399) coated 8-well chamber plates, fixed with 4% PFA (VWR, AA43368-9M), and stained with DAPI (Life Technologies, D1306, 1 μg/mL in 1% BSA in PBS), LM609 (5 μg/mL in 1% BSA in PBS), and a fluorescently-labeled secondary antibody (Thermo, A21235, 1:500). The cells were analyzed utilizing Nikon Eclipse C2™ confocal microscope (Nikon). CTCs were defined as DAPI and GFP double positive cells. The numbers of αvβ3-positive and -negative CTCs per mouse were counted. After sacrificing the mice, the tumor mass volume in the lungs were also measured utilizing an OV100™ fluorescence imaging system (Olympus).

[2] = tested on: PC9 (β3−) subcutaneous xenograft; experiment: PC9 subcutaneous xenograft treated with erlotinib; format: in vivo, mice; settings: erlotinib n=1 vs vehicle n=1, measured weekly
[3] = tested on: tumor-associated macrophages (TAMs); experiment: Quantification of TAMs in xenograft tumor tissues; format: in vivo, nu/nu mice; settings: erlotinib vs vehicle, after 50 days of treatment
Experimental: TAMs were isolated from tumor tissues as previously described (4). Snap frozen tumor tissues were thawed, minced, and dissociated in HBSS containing collagenase IV (Sigma, C5138, 0.5 mg/mL), hyaluronidase (Sigma, H2654, 0.1 mg/mL), dispase 11 (Roche, 04942078001, 0.6 U/mL), and DNase IV (Millipore, 260913-10MU, 5 U/mL) at 37° C. for 15 minutes. Cell suspensions were filtered through 70 μm cell strainer and washed with PBS. Single cell suspensions (10^6 cells/100 μL in 5% BSA in PBS) were incubated with Mouse BD Fc Block™ (BD Biosciences, 553142, 1:50) for 10 minutes at 4° C. and fluorescently labeled antibodies, CD11b (eBioscience, 17-0112-81, 1:100), Ly-6G (eBioscience, 25-5931, 1:100), CD206 (BioRad, MCA2235PET), and MHC11 (BD Biosciences, 562928) for one hour at 4° C. Flow cytometry was performed on BD LSRFortessa™, and the ratio of TAMs (CD11b-positive, Ly-6G-negative), M1 (CD206-negative, MHC11-positive within TAMs), and M2 (non-M1 population within TAMs) in the tumor tissue was calculated using the flow cytometry analysis program FlowJo™ (Treestar).

HCC827 (β3−) xenograft = experiment: Erlotinib resistant lung adenocarcinoma xenograft model (HCC827 subcutaneous); settings: erlotinib-resistant tumors vs vehicle group
Experimental: Briefly, HCC827 (5×10^6 tumor cells in 100 μl of RPMI) cells were subcutaneously injected to the right flank of female nu/nu mice (8-10 weeks old). Tumors were measured twice per week with calipers (tumor volume (mm 3)=length×width×width/2). […] Tumor tissues were divided into three pieces for snap freezing, freezing in OCT compound (VWR, 25608-930), or 10% formalin fixation (Fisher Scientific, 23-313095) for further analyses.
Immunohistochemical staining was performed on unstained FFPE slides according to the manufacturers recommendations for the VECTASTAIN Elite ABC HRP Kit (Vector Laboratories, PK-6100). An anti-integrin β3 antibody (Cell Signaling, 13166, 1:200) and a biotinylated goat anti-rabbit antibody (Vector Laboratories, BA-1000, 1:200) were used. The stained tissues were imaged on NanoZoomer Slide Scanning System™ (Hamamatsu), and the β3-positive area fraction with respect to tumor tissue was calculated utilizing ImageJ (MH) (5).

solid tumors = settings: patients with solid tumors; cited from earlier work
integrin αvβ3 = integrin αvβ3 (Homo sapiens, UniProt P05106+P06756); settings: in vitro; cited from earlier work
Sequence of integrin αvβ3 (P06756 31-889 limits assumed): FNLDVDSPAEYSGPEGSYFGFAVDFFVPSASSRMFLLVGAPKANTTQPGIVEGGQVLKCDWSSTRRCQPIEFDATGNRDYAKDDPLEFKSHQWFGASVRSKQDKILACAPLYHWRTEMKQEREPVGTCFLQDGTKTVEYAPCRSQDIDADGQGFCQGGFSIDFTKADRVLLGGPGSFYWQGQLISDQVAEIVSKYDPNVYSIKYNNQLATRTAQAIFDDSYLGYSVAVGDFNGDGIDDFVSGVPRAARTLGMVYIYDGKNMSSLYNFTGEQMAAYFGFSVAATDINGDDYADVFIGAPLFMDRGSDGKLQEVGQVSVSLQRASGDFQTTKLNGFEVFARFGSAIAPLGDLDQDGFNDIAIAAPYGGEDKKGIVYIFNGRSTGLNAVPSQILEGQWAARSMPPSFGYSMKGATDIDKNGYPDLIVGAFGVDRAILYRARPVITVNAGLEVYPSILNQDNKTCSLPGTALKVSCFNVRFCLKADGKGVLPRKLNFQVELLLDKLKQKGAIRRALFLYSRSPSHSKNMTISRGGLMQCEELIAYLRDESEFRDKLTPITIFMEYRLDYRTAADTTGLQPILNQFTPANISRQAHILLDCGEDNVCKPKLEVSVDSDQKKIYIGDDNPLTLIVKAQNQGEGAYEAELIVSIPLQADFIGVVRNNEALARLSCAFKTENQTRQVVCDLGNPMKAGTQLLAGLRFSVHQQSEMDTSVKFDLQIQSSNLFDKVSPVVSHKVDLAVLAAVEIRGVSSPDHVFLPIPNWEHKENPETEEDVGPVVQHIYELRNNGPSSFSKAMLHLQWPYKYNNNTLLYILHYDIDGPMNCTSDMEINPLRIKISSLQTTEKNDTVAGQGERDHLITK
Sequence of integrin αvβ3 (P06756 891-1048 limits assumed): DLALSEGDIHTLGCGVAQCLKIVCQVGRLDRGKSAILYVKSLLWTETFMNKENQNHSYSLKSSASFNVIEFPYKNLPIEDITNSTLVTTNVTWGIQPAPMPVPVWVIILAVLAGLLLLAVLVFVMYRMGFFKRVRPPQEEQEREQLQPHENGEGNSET
Sequence of integrin αvβ3 (P05106 27-788): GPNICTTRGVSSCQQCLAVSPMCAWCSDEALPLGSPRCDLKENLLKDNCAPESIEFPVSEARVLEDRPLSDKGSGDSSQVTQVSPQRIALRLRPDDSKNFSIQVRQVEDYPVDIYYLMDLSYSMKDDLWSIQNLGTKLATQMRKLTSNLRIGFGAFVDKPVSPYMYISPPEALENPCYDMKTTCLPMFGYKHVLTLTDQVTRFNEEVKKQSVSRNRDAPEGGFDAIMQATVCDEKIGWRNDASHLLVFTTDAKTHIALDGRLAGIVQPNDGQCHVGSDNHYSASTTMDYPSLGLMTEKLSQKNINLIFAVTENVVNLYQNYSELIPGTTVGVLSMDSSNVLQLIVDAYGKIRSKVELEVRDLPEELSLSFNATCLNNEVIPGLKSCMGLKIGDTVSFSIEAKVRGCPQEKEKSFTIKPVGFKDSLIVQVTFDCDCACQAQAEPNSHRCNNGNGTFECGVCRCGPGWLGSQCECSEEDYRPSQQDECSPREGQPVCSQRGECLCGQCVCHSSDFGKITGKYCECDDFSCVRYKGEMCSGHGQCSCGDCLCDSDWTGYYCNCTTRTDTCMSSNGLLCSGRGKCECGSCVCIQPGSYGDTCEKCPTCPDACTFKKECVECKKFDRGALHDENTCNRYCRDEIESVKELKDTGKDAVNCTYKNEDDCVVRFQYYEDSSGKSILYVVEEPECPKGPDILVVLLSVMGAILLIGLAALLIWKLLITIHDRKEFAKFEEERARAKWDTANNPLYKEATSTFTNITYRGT

**Q.** What does the source list for `C=CC(=O)Nc1cc(Nc2nccc(-c3cn(C)c4ccccc34)n2)c(OC)cc1N(C)CCN(C)C` [osimertinib]?
**A.** cell viability, sensitivity to EGFR inhibitor (HCC827-ErlR): also resistant; cell viability (MTT), sensitivity to EGFR inhibitor (PC9 ErlR cells): osimertinib resistant

**Q.** With `C#Cc1cccc(Nc2ncnc3cc(OCCOC)c(OCCOC)cc23)c1` [erlotinib] as the molecule, how does the “number of CTCs” value ([1]; erlotinib for 30 days vs pre-treatment) read?
**A.** sharp increase in the number of CTCs

**Q.** What about the “αvβ3 status of CTCs” value ([1]; following erlotinib treatment) of the same molecule?
**A.** vast majority of the CTCs detected following erlotinib treatment were αvβ3 positive

**Q.** And the tumor growth [2]?
**A.** gained resistance

**Q.** What about the “number of TAMs, particularly M2 type, in tumors” value [3] of the same molecule?
**A.** higher number of TAMs

**Q.** And the “expression of integrin αvβ3 in tumors” value (HCC827 (β3−) xenograft)?
**A.** enriched in the erlotinib-resistant tumors compared to the vehicle group

B1: etaracizumab: a humanized and affinity-matured form of LM609 (antibody, chains of the INN, looked up, V domains shown)
VH: QVQLVESGGGVVQPGRSLRLSCAASGFTFSSYDMSWVRQAPGKGLEWVAKVSSGGGSTYYLDTVQGRFTISRDNSKNTLYLQMNSLRAEDTAVYYCARHLHGSFASWGQGTTVTVSS
VL: EIVLTQSPATLSLSPGERATLSCQASQSISNFLHWYQQRPGQAPRLLIRYRSQSISGIPARFSGSGSGTDFTLTISSLEPEDFAVYYCQQSGSWPLTFGGGTKVEIK
**Q.** With B1 as the molecule, how does the clinical activity (solid tumors) read?
**A.** showed clinical activity in some patients

**Q.** And the “antibody-dependent cell mediated cytotoxicity (ADCC)” value (integrin αvβ3)?
**A.** reported to mediate antibody-dependent cell mediated cytotoxicity (ADCC) in vitro
